Laboratory results as given in US20170210778A1, “NOVEL COMPOUNDS” (The Provost, Fellows, Foundation Scholars, and the other …, priority 2014, published 2017).
*1 amine or outer side, *2 acyl side, *3 side chain or, on linkers, in order; H or OH if unused. Where a SMILES comes first, the peptide text is derived from it. [ ]: non-standard residue; d: D form. The star is where a group is joined. d(γGlu) = O=C(O)[C@@H](CCC(=O)[*:2])N[*:1]; Ala(3-yl) = N[C@@H](C*)C(=O)O; dLac = C[C@@H](O)C(=O)O

Assays:
[1] = biological target: T1, human NOD1 (Homo sapiens, UniProt Q9Y239); experiment: NOD1 functional agonist assay, 293hNOD1-SEAP reporter cells; type: cell-based; settings: 293hNOD1 cells, OD above 3*O.D of negative control
T1 construct: expressed in transfected cells; host or cells: HEK293
T1 sequence (Q9Y239 1-953): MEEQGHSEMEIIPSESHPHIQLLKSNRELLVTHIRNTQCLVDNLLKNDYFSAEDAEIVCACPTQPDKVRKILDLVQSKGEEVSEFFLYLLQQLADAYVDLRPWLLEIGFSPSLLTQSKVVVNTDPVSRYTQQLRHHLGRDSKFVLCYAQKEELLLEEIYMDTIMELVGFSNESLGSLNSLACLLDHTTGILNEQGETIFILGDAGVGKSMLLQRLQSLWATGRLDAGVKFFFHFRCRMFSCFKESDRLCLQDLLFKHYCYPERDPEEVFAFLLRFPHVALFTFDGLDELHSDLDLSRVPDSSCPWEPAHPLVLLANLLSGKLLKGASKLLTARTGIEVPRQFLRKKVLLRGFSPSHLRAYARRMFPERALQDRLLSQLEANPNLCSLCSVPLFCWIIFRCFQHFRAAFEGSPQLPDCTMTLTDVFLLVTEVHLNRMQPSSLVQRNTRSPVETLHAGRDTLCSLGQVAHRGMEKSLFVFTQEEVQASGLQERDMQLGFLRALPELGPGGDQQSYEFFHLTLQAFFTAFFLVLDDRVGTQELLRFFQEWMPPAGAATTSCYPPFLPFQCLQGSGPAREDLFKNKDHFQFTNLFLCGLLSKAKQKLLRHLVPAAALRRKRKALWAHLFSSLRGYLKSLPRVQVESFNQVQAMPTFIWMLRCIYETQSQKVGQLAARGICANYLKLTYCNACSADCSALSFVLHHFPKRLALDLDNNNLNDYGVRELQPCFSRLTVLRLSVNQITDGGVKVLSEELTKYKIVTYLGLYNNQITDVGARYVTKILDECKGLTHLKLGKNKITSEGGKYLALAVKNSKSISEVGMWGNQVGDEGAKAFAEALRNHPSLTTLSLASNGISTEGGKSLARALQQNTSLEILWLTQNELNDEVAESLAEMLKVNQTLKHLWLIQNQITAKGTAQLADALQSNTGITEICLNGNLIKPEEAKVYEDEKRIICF
Text: (§1) HEK293 cells were stably transfected with plasmid for the overexpression of the NOD1 genes and a reporter plasmid expressing a secreted embryonic alkaline phosphatase (SEAP) gene under the control of a promoter inducible by the transcription factors NF-κB and AP-1. These cells are referred herein as 293hNOD1-SEAP (for cells overexpressing the human NOD1 gene) and 293mNOD1-SEAP (for cells overexpressing the murine NOD1 gene). Upon NOD1 stimulation, these cells induce the activation of NF-κB and AP-1 and subsequently the secretion of SEAP. The reporter protein is easily detectable and measurable when using QUANTI-Blue™ (InvivoGen, San Diego, Calif.), a medium that turns purple/blue in the presence of SEAP.
(§2) The biological activity of the compounds of the invention tested using 293hNOD1 and 293mNOD1 cells. SEAP expression was measured using the commercially available SEAP detection kit (HEK-Blue™ Detection, InvivoGen). The SEAP activity in cells was quantified using the microplate reader (FLUOStar OPTIMA, BMG laboratories), the absorbance values were read using filter with excitation at 620 nm and emission at 655 nm. The results provided in Table 2 were expressed as the concentration were a significant mean optical density (OD) can be observed (above 3*O.D of negative control). As a positive control, the NOD1 pathway was stimulated with commercially available iE-DAP (InvivoGen) and C12-iE-DAP (an acylated derivative of DAP; InvivoGen). As a negative control endotoxin-free water was used. Additionally, 293 cells expressing the SEAP gene but not the NOD1 gene were used as a control.

[2] = biological target: T2, murine NOD1 (Mus musculus, UniProt Q8BHB0); experiment: NOD1 functional agonist assay, 293mNOD1-SEAP reporter cells; type: cell-based; settings: 293mNOD1 cells, OD above 3*O.D of negative control
T2 construct: expressed in transfected cells; host or cells: HEK293
T2 sequence (Q8BHB0 1-953): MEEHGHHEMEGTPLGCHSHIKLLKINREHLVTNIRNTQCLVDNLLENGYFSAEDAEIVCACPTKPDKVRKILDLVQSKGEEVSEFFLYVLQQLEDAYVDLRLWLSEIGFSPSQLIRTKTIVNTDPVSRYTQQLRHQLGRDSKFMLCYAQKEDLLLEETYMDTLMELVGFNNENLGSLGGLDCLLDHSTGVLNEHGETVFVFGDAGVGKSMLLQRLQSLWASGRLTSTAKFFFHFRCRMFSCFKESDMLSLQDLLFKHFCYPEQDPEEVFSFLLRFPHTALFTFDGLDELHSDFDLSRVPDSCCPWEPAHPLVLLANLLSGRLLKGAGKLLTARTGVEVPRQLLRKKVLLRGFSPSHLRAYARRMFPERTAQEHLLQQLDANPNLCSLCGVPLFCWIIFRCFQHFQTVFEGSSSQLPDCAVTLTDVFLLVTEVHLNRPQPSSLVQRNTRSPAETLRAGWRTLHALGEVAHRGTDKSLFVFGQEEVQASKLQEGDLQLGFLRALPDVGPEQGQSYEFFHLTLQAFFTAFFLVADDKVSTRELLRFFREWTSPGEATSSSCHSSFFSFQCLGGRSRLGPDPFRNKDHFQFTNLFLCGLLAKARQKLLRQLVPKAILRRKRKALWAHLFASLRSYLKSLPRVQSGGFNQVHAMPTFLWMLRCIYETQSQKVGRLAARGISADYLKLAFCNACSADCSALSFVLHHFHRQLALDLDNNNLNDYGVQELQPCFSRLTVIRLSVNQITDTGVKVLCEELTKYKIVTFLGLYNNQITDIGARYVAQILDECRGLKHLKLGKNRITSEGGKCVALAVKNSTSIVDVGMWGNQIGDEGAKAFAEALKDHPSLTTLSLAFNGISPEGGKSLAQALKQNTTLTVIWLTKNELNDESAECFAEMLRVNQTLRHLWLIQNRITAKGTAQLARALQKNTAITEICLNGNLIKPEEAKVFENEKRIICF
Text: as §1, §2

Row | SMILES | hNod1: concentration where a significant mean optical density (OD) can be observed [1] [µg/mL] | mNod1: concentration where a significant mean optical density (OD) can be observed [2] [µg/mL]
1 | CCCCCCCCCCCCCC(=O)N[C@@H](CC(C)C)C(=O)N[C@H](CCC(=O)N[C@H](CSC[C@H](N)C(=O)O)C(=O)O)C(=O)O [Example 10, N^5-((S)-2-(((R)-2-amino-2-carboxyethyl)thio)-1-carboxyethyl)-N^2-(tetradecanoyl-L-leucyl)-D-glutamine] | 0.001 | 0.1
2 | CCCCCCCCCCCC(=O)N[C@@H](C)C(=O)N[C@H](CCC(=O)N[C@H](CSC[C@H](N)C(=O)O)C(=O)N[C@H](C)C(=O)O)C(=O)O [Example 20, N^5-((S)-3-(((R)-2-amino-2-carboxyethyl)thio)-1-(((R)-1-carboxyethyl)amino)-1-oxopropan-2-yl)-N^2-(dodecanoyl-L-alanyl)-D-glutamine] | 0.01 | 0.01
3 | CCCCCCCCCCCC(=O)N[C@H](CCC(=O)N[C@H](CSC[C@H](N)C(=O)O)C(=O)NCC(=O)O)C(=O)O [Example 24, N^5-((S)-3-(((R)-2-amino-2-carboxyethyl)thio)-1-((carboxymethyl)amino)-1-oxopropan-2-yl)-N^2-dodecanoyl-D-glutamine] | 0.01 | 0.01
4 | CCCCCCC(=O)N[C@H](CCC(=O)N[C@H](CSC[C@H](N)C(=O)O)C(=O)NCC(=O)O)C(=O)O [Example 23, N^5-((S)-3-(((R)-2-amino-2-carboxyethyl)thio)-1-((carboxymethyl)amino)-1-oxopropan-2-yl)-N^2-heptanoyl-D-glutamine] | 1 | 1
5 | CCCCCCCCCCCCCC(=O)N[C@H](CCC(=O)N[C@H](CSC[C@H](N)C(=O)O)C(=O)O)C(=O)O [Example 4, N^5-((S)-2-(((R)-2-amino-2-carboxyethyl)thio)-1-carboxyethyl)-N^2-tetradecanoyl-D-glutamine] | 0.0001 | 0.001
6 | C[C@@H](NC(=O)[C@@H](CSC[C@H](N)C(=O)O)NC(=O)CC[C@@H](N)C(=O)O)C(=O)O [Example 14, N^5-((S)-3-(((R)-2-amino-2-carboxyethyl)thio)-1-(((R)-1-carboxyethyl)amino)-1-oxopropan-2-yl)-D-glutamine] | 1 | 10
7 | C[C@H](N)C(=O)N[C@H](CCC(=O)N[C@@H](COC[C@@H](N)C(=O)O)C(=O)O)C(=O)O [Example 36, N^2-(L-alanyl)-N^5-((S)-2-((R)-2-amino-2-carboxyethoxy)-1-carboxyethyl)-D-glutamine] | 100 | 100
8 | C[C@H](NC(=O)[C@@H](C)O)C(=O)N[C@H](CCC(=O)N[C@H](CSC[C@H](N)C(=O)O)C(=O)NCC(=O)O)C(=O)O [Example 30, N^5-((S)-3-(((R)-2-amino-2-carboxyethyl)thio)-1-((carboxymethyl)amino)-1-oxopropan-2-yl)-N^2-(((R)-2-hydroxypropanoyl)-L-alanyl)-D-glutamine] (H-[dLac]A[d(γGlu)][dC](Ala(3-yl))G-OH) | 10 | 10
9 | CCCCCCCCCCCCCC(=O)N[C@H](CCC(=O)N[C@H](CSC[C@H](N)C(=O)O)C(=O)NCC(=O)O)C(=O)O [Example 25, N^5-((S)-3-(((R)-2-amino-2-carboxyethyl)thio)-1-((carboxymethyl)amino)-1-oxopropan-2-yl)-N^2-tetradecanoyl-D-glutamine] | 0.01 | 0.01
10 | C[C@H](N)C(=O)N[C@H](CCC(=O)N[C@H](CSC[C@H](N)C(=O)O)C(=O)O)C(=O)O [Example 5, N^2-(L-alanyl)-N^5-((S)-2-(((R)-2-amino-2-carboxyethyl)thio)-1-carboxyethyl)-D-glutamine] | 1 | 1
11 | N[C@@H](CSC[C@@H](NC(=O)CC[C@@H](NC(=O)[C@@H](N)Cc1ccccc1)C(=O)O)C(=O)O)C(=O)O [Example 9, N^2-(L-phenylalanyl)-N^5-((S)-2-(((R)-2-amino-2-carboxyethyl)thio)-1-carboxyethyl)-D-glutamine] | 10 | 10
12 | C[C@H](N)C(=O)N[C@H](CCC(=O)N[C@H](CSC[C@H](N)C(=O)O)C(=O)N[C@H](C)C(=O)O)C(=O)O [Example 18, N^2-(L-alanyl)-N^5-((S)-3-(((R)-2-amino-2-carboxyethyl)thio)-1-(((R)-1-carboxyethyl)amino)-1-oxopropan-2-yl)-D-glutamine] | 1 | 1
13 | CCCCCCC(=O)N[C@H](CCC(=O)N[C@H](CSC[C@H](N)C(=O)O)C(=O)O)C(=O)O [Example 2, N^5-((S)-2-(((R)-2-amino-2-carboxyethyl)thio)-1-carboxyethyl)-N^2-heptanoyl-D-glutamine] | 0.1 | 1
14 | CCCCCCC(=O)N[C@@H](C)C(=O)N[C@H](CCC(=O)N[C@H](CSC[C@H](N)C(=O)O)C(=O)NCC(=O)O)C(=O)O [Example 27, N^5-((S)-3-(((R)-2-amino-2-carboxyethyl)thio)-1-((carboxymethyl)amino)-1-oxopropan-2-yl)-N^2-(heptanoyl-L-alanyl)-D-glutamine] | 1 | 1
